# Assay results reported in paper PMC10888562 (International Journal of Molecular Sciences, 2024).
# Where “and” joins values, the source holds several entries; their conditions need not be identical. Equal values may be shown once.
# Experiments:
# [1] = test system: HT29 colon; experiment: MTT cell viability assay (GI50), HT29; type: cell-based, human; settings: for SCI: GI50 (MCF10A)/GI50 (HT29); for GI50: MTT
# [2] = test system: cisplatin-resistant ADDP ovarian variant; experiment: MTT cell viability assay (GI50), ADDP; type: cell-based, human; settings: for SCI: GI50 (MCF10A)/GI50 (ADDP); for GI50: cisplatin-resistant ADDP ovarian variant, MTT
# [3] = test system: SJ-G2 glioblastoma; experiment: MTT cell viability assay (GI50), SJ-G2; type: cell-based, human; settings: for SCI: GI50 (MCF10A)/GI50 (SJ-G2); for GI50: SJ-G2 glioblastoma, MTT
# [4] = test system: MCF-7 breast; experiment: MTT cell viability assay (GI50), MCF-7; type: cell-based, human; settings: for SCI: GI50 (MCF10A)/GI50 (MCF-7); for GI50: MCF-7 breast, MTT
# [5] = test system: HT29 colon cells; experiment: DCFDA cellular ROS production assay; type: cell-based, human; settings: GI50 drug concentration (TBHP 20 μM)
# Protocol: All values are expressed as relative fluorescence units (RFU).
# To evaluate the presence of ROS in treated cells, a DCFDA/H2DCFDA-cellular ROS Assay Kit (Abcam, Cambridge, MA, USA) was used, as previously described. A total of 25,000 cells/mL of HT29 cells in DMEM were seeded in 96-well plates. Cells were washed with 1X kit buffer, and then stained with 25 μM 2′,7′-dichlorofluorescein diacetate (DCFH-DA) and incubated for 45 min. DCFH-DA was then removed, and cells were then re-washed with 1X kit buffer, after which phenol red free media was added. Cells were then treated with a GI50 drug concentration for each complex. The plates were directly scanned to measure fluorescence (relative fluorescence units (RFU)) at the time points indicated the Glo-Max®-Multimode microplate reader (Promega Corporation, Alexandra, VIC, Australia) at an excitation/emission of 485/535 nm, which is directly correlated to the DCFH-DA that is deacetylated by cellular esterases and then oxidised by ROS to the fluorescent compound DCF. To generate the positive control (20 μM tert-butyl hydroperoxide (TBHP)), cells were washed with 1X kit buffer, and stained with DCFDA (25 μM) for 45 min; this was removed and TBHP was added in phenol red free media, and the resulting solution was scanned as described above.
# [6] = test system: BE2-C neuroblastoma; experiment: MTT cell viability assay (GI50), BE2-C; type: cell-based, human; settings: for SCI: GI50 (MCF10A)/GI50 (BE2-C); for GI50: BE2-C neuroblastoma, MTT
# [7] = test system: H460 lung; experiment: MTT cell viability assay (GI50), H460; type: cell-based, human; settings: for SCI: GI50 (MCF10A)/GI50 (H460); for GI50: H460 lung, MTT
# [8] = test system: U87 glioblastoma; experiment: MTT cell viability assay (GI50), U87; type: cell-based, human; settings: for SCI: GI50 (MCF10A)/GI50 (U87); for GI50: U87 glioblastoma, MTT
# [9] = test system: histone deacetylase (HDAC); experiment: Fluorometric HDAC activity assay on extracts of treated HT29 cells; type: cell-based, human; settings: HT29 colon cells treated 72 h at GI50 concentration; lower RFU = decline in HDAC activity; HT29 extract control 5154 ± 40
# Protocol: All values are expressed as RFU.
# To study the HDAC activity in HT29 treated cells, a Fluorometric HDAC Activity Assay Kit ab156064 (Abcam, Cambridge, MA, USA) was used and all sample preparations were made based on the manufacturer’s protocol. A total of 10^6 cells/mL of HT29 cells were seeded in DMEM with serum deprivation for 18 h to synchronise the cells. […] Cells were then washed with cold PBS and resuspended in lysis buffer (10 mM Tris HCl (pH 7.5), 10 mM NaCl, 15 mM MgCl2, 250 mM sucrose, 0.5% NP-40 and 0.1 mM EGTA) and lysed on ice for 20 min. Cells were centrifuged through 4 mL of sucrose cushion (30% sucrose, 10mM Tris HCl (pH 7.5), 10 mM NaCl and 3mM MgCl2) at 1300× g for 10 min at 4 °C. Supernatant was discarded and the pellet was washed and resuspended in extraction buffer (50 mM HEPES-KOH (pH 7.5), 420 mM NaCl, 0.5 mM EDTA 2Na, 0.1 mM EGTA and 10% glycerol) and then sonicated for 30 s. Nuclei were lysed for 30 min on ice and centrifuged at 20,000× g for 30 min. The supernatant was collected, and the samples were prepared for the fluorometric assay according to the manufacturer’s protocol (Histone Deacetylase (HDAC) Activity Assay Fluorometric Kit ab156064, Abcam). The changes in the relative fluorescence intensity (expressed as RFU) were recorded each minute over 60 min using the Glo-Max®-Multimode microplate reader (Promega Corporation, Alexandra, VIC, Australia) at an excitation/emission of 355/460 nm.
# [10] = test system: A431 skin; experiment: MTT cell viability assay (GI50), A431; type: cell-based, human; settings: for SCI: GI50 (MCF10A)/GI50 (A431); for GI50: A431 skin, MTT
# [11] = Reduction with ascorbic acid (AsA) followed by 1H-NMR and 1D-195Pt-NMR; type: physicochemical; settings: PBS, DMSO-d6, 37 °C; for Approximate Reduction Time Points T50%: time at which 50% of reduction occurs; for Approximate Reduction Time Points T100%: time at which 100% of reduction occurs
# Protocol: The biological reductant selected for this study is AsA. Briefly, sequential ^1H-NMR experiments were performed for 1 h at 37 °C, proceeded by 1D-^195Pt-NMR at 400 and −2800 ppm (30 min per region). It is noteworthy that the purity of each complex was examined prior the reduction experiments ensuring that no traces of platinum(II) species were evident in the samples used. All complexes were dissolved in PBS and DMSO-d6, without the reductant. Preliminary 1D-^195Pt-NMR measurements were conducted at 37 °C at 400 and −2800 ppm. […] Upon treatment of the platinum(IV) complexes with AsA, there was considerable reduction observed in the ^1H-NMR and 1D-^195Pt-NMR spectra acquired (Figures S31–S36). Notable changes in chemical multiplicity were recorded in the ^1H-NMR reduction spectra of P-5B3A, 5-5B3A and 56-5B3A (Figures S31, S33 and S35), especially along the aromatic region. The estimated reduction time points for P-5B3A, 5-5B3A and 56-5B3A are also outlined in Table 3.
# The reduction behaviour of P-5B3A, 5-5B3A and 56-5B3A was investigated using ^1H-NMR and 1D-^195Pt-NMR spectroscopy, using previously established methods.
# [12] = test system: Du145 prostate; experiment: MTT cell viability assay (GI50), Du145; type: cell-based, human; settings: for fold more potent than carboplatin / fold more potent than cisplatin / fold more potent than oxaliplatin: GI50 ratio; for GI50: MTT; for SCI: GI50 (MCF10A)/GI50 (Du145)
# [13] = test system: multiple human cell lines; experiment: MTT cell viability assay, all cell lines (mean/range of GI50); type: cell-based; settings: for fold decrease of average GI50 relative to the platinum(IV) scaffold: average GI50 of scaffold vs 5B3A derivative, all cell lines; for GI50: average over all cell lines
molecule,measurement,setting,value
"N.N.[Cl][Pt][Cl] [Cisplatin, cis-diammineplatinum(II) dichloride]",SCI,[1],0.46
same,SCI,[2],0.19
same,SCI,[3],13.00
same,SCI,[4],0.80
same,ROS Production,"[5]; 24 h, control 60 ± 3",265 ± 19 RFU
same,ROS Production,"[5]; 48 h, control 63 ± 4",299 ± 22 RFU
same,ROS Production,"[5]; 72 h, control 85 ± 6",364 ± 18 RFU
same,SCI,[6],2.74
same,SCI,[7],5.78
same,SCI,[8],1.37
same,HDAC Inhibition at 72 h,[9],3698 ± 59 RFU
same,SCI,[10],2.17
"[Pt^IV(5,6-Me2phen)(SS-DACH)(5B3A)(OH)]^2+ [56-5B3A]",SCI,[1],0.75
same,GI50,[1]; HT29 colon,0.0044 ± 0.0016 µM
same,Approximate Reduction Time Points T50%,[11],0 to 5 min
same,Approximate Reduction Time Points T100%,[11],10 min
same,fold more potent than 56MESS,[2]; ADDP,0.5 fold
same,SCI,[2],0.55
same,GI50,[2],0.006 ± 0.003 µM
same,SCI,[3],0.03
same,GI50,[3],0.11 ± 0.02 µM
same,SCI,[4],0.05
same,GI50,[4],0.068 ± 0.01 µM
same,ROS Production,"[5]; 24 h, control 60 ± 3",274 RFU and 274 ± 9 RFU
same,ROS Production,"[5]; 48 h, control 63 ± 4",418 RFU and 418 ± 15 RFU
same,ROS Production,"[5]; 72 h, control 85 ± 6",474 ± 10 RFU
same,GI50,[6],0.15 ± 0.024 µM
same,SCI,[6],0.02
same,fold more potent than 56MESS,[12]; Du145 prostate,0.3 fold
same,fold more potent than carboplatin,[12]; Du145 prostate,"≥ 12,500 fold"
same,fold more potent than cisplatin,[12]; Du145 prostate,1000 fold
same,fold more potent than oxaliplatin,[12]; Du145 prostate,at least 2400 fold
same,GI50,[12]; Du145 prostate,0.0012 ± 0.0006 µM
same,SCI,[12],2.75
same,SCI,[7],0.42
same,GI50,[7],0.0078 ± 0.0022 µM
same,fold decrease of average GI50 relative to the platinum(IV) scaffold,[13],3.6 fold
same,GI50,[13],0.042 ± 0.007 µM
same,SCI,[8],0.04
same,GI50,[8],0.088 ± 0.007 µM
same,HDAC Inhibition at 72 h,[9],2550 ± 57 RFU
same,GI50,[10],0.033 ± 0.0084 µM
same,SCI,[10],0.10
[Pt^IV(5-Mephen)(SS-DACH)(5B3A)(OH)]^2+ [5-5B3A],SCI,[1],1.06
same,fold more potent than cisplatin,"[1]; HT29 colon, GI50 ratio",~630 fold
same,GI50,[1]; HT29 colon,0.018 ± 0.00067 µM
same,Approximate Reduction Time Points T50%,[11],5 to 10 min
same,Approximate Reduction Time Points T100%,[11],30 min
same,fold more potent than cisplatin,"[2]; ADDP, GI50 ratio",~1220 fold
same,SCI,[2],0.83
same,GI50,[2],0.023 ± 0.00088 µM
same,SCI,[3],0.10
same,GI50,[3],0.2 ± 0.04 µM
same,SCI,[4],0.10
same,GI50,[4],0.2 ± 0.021 µM
same,ROS Production,"[5]; 24 h, control 60 ± 3",160 RFU and 160 ± 11 RFU
same,ROS Production,"[5]; 48 h, control 63 ± 4",230 RFU and 230 ± 9 RFU
same,ROS Production,"[5]; 72 h, control 85 ± 6",315 RFU and 315 ± 14 RFU
same,GI50,[6],0.34 ± 0.04 µM
same,SCI,[6],0.06
same,fold more potent than carboplatin,[12]; Du145 prostate,1500 fold
same,fold more potent than cisplatin,[12]; Du145 prostate,120 fold
same,fold more potent than oxaliplatin,[12]; Du145 prostate,290 fold
same,GI50,[12]; Du145 prostate,0.01 ± 0.002 µM
same,SCI,[12],1.90
same,SCI,[7],0.63
same,GI50,[7],0.03 ± 0.003 µM
same,fold lower average GI50 than 5MESS,"[13]; average GI50, all cell lines",approximately 0.9 fold
same,fold decrease of average GI50 relative to the platinum(IV) scaffold,[13],4 fold
same,GI50,[13],0.104 ± 0.012 µM
same,SCI,[8],0.08
same,GI50,[8],0.24 ± 0.023 µM
same,HDAC Inhibition at 72 h,[9],2791 ± 72 RFU
same,GI50,[10],0.093 ± 0.008 µM
same,SCI,[10],0.20
[Pt^IV(phen)(SS-DACH)(5B3A)(OH)]^2+ [P-5B3A],SCI,[1],1.40
same,fold more potent than carboplatin,"[1]; HT29 colon, GI50 ratio",≥ 250 fold
same,fold more potent than cisplatin,"[1]; HT29 colon, GI50 ratio",at least 57 fold
same,fold more potent than oxaliplatin,"[1]; HT29 colon, GI50 ratio",≥ 5 fold
same,GI50,[1]; HT29 colon,0.2 ± 0.027 µM
same,Approximate Reduction Time Points T50%,[11],10 to 15 min
same,Approximate Reduction Time Points T100%,[11],60 min
same,fold more potent than carboplatin,"[2]; ADDP, GI50 ratio",152 fold
same,fold more potent than cisplatin,"[2]; ADDP, GI50 ratio",at least 85 fold
same,SCI,[2],0.85
same,GI50,[2],0.33 ± 0.0088 µM
same,SCI,[3],0.22
same,GI50,[3],1.3 ± 0.2 µM
same,SCI,[4],0.05
same,GI50,[4],5.4 ± 2.8 µM
same,ROS Production,"[5]; 24 h, control 60 ± 3",156 RFU and 156 ± 16 RFU
same,ROS Production,"[5]; 48 h, control 63 ± 4",214 RFU and 214 ± 12 RFU
same,ROS Production,"[5]; 72 h, control 85 ± 6",246 ± 11 RFU
same,GI50,[6],13 µM
same,SCI,[6],0.02
same,GI50,[12]; Du145 prostate,0.19 ± 0.023 µM
same,SCI,[12],1.47
same,SCI,[7],0.65
same,GI50,[7],0.43 ± 0.05 µM
same,fold larger average GI50 than 5-5B3A,"[13]; average GI50, all cell lines",20 fold
same,fold larger average GI50 than 56-5B3A,"[13]; average GI50, all cell lines",50 fold
same,fold decrease of average GI50 relative to the platinum(IV) scaffold,[13],~1.6 fold
same,GI50,[13],2.08 ± 0.703 µM
same,SCI,[8],0.15
same,GI50,[8],1.9 ± 0.15 µM
same,HDAC Inhibition at 72 h,[9],3620 ± 35 RFU
same,GI50,[10],1.2 ± 0.1 µM
same,SCI,[10],0.23
